Source: US11812746B2, “Method of controlling fungal infections in plants” (THE STATE OF ISRAEL, MINISTRY OF AGRICULTURE & RURAL …, priority 2016, dated 2023)

Legend:
Sclerotinia sclerotiorum [1] = experiment: Sweet basil plants in pots, white rot after mycelium disc inoculation; type: in vivo; settings: 4.1 mM, spray or drench
Experimental: Phe concentration used was 4.1 mM. Results are presented by disease severity scoring of AUDPC (area under disease progress curve during 6 days after infection) where the severity is marked by units of rot diameter (mm) multiplied by the time of incubation.
Sweet basil plants in pots were treated with 4.1 mM Phe as described for tomato, and inoculated with a S. sclerotiorum mycelium disc from 4 days potato dextrose agar culture (White rot), related to botrytis, both being from the Ascomycota division.

Pythium aphanidermatum = experiment: Cucumber plantlets, damping off disease after drench; type: in vivo; settings: 4 mM drench
Experimental: Phe concentration used was 4 mM. Results are presented by the percentage of dead plants incidence (FIG. 9A). FIG. 9B: control treatment=lower row and Phe treatment=upper row.
Cucumber plantlets cv. Bet Alpha and grown in peat based growing medium were treated either by drenching 4 mM phenylalanine solution, 10 ml per pot containing 4 plants each. and the percent plantlets that survived was determined in each treatment. […] FIG. 9B presents two pots of each treatment; Pots in the lower row were not treated and pots in upper row were treated with 4 mM Phe.

[2] = system: Botrytis cinerea strain BO-05; experiment: Detached petunia leaves dipped in Phe, wound inoculated with B. cinerea conidia; type: in vivo; settings: 15 mM Phe dip, 7 days post inoculation, vs non-treated controls
Experimental: Petunia (Petunia×hybrida) V26 variety, and a commercial white flowered cultivar (Dream White) cultivars were used. Petunia plants were grown as described in Oliva et al., (2015). Arabidopsis plants were grown as described in Tzin et al., (2012).
Conidia of Botrytis cinerea strain BO-05 were grown on PDA medium for 10 days. Conidia were gently collected from the plate in sterile water and were diluted to 10^6 conidia/ml. Fresh leaves of similar age and size of Petunia or Arabidopsis were detached from the plant, washed with water and placed in a humid chamber, under artificial light at 22° C. The upper side of the leaves was wounded (1-2 mm) and 5 μl drops of conidia suspension at a concentration of 10^6 conidia/ml were placed on the artificial wound. Decay diameter was measured following inoculation in specific days post inoculation (dpi) as detailed in the results.
Petunia leaves were dipped for 10 min in double distilled water with 0.02% Silwett L-77 surfactant supplemented either with 15 mM or 0 mM phenylalanine. Leaves were then placed in a humid box, and wound inoculated with B. cinerea was performed as described above.
In an independent experiment the decay diameter of detached leaves of wild type petunia (V26 cultivar) treated with 15 mM Phe or with […]. […]
Necrotic area was measured at 3, 4 and 7 days post inoculation (dpi). […]

B. cinerea [3] = experiment: Cut Ruscus branches drenched or dipped in Phe, leaves wounded and inoculated with B. cinerea; type: in vivo, Botrytis cinerea; settings: whole branches dipped for an hour in 6 mM
Experimental: Ruscus branches serve as an ornamental decorative. These plants are very susceptible to Botrytis. Cut branches were treated with Phe either by drenching the tip of the cut branch in the Phe solution (FIG. 4B), or dipping the whole cut branch in Phe solution for an hour before dipping it in water and inoculating with botrytis. In both treatments the concentration used was 6 mM phenylalanine, and for the drenching treatment an additional concentration of 20 mM was added (FIG. 4A). For the dipping experiment 50 ppm T.O.G-6 was added to the Phe solution to prevent bacterial growth during the days of the experiment. Control branches were drenched in water and dipped in water with 50 ppm T.O.G-6. Ruscus leaves were wounded and inoculated with B. cinerea as described in the above Examples. Decay area (mm*2) results are presented as averages of 10 replications with each being a leaf from one of 10 branches±SE.

[4] = system: Plenodomus tracheiphilus syn Phoma tracheiphila; experiment: Lemon plants in pots, mal secco disease after leaf wounding and conidia infection; type: in vivo; settings: 4 mM, drenching 10 ml per pot or spraying
Experimental: Phe concentration used was 4 mM. Results are presented by disease incidence of infection sites as percent resulting from drench treatment (lower FIG. 7A) and spray treatment (upper FIG. 7A)
Lemon plants in pots were treated with 4 mM Phe water solutions either by drenching 10 ml of solution per pot or spraying, as described for tomato. Infection was carried out by conidia suspension of Plenodomus tracheiphilus after leaf wounding by a needle. Disease incidence was evaluated according to the amount of successful infection sites on the infected leaves and presented as percent of infected leaves.

Sclerotinia sclerotiorum [5] = experiment: Tomato leaves, white rot after spray or drench treatment; type: in vivo; settings: spray and drench, 4 mM
Experimental: Phe concentration used was 4 mM. Results are presented by disease severity scoring of AUDPC (area under disease progress curve during 15 days after infection) where the severity is marked by units of rot area (mm^2) multiplied by the time of incubation.

B. cinerea [6] = experiment: Whole petunia plants sprayed or pots drenched, leaves inoculated with B. cinerea; type: in vivo, Botrytis cinerea; settings: for B. cinerea infection (decay area): 0.5 mM, spraying
Experimental: Inoculation with B. cinerea was performed 3 days after Phe treatment. In this case only one Phe treatment was performed however multiple treatments can be used e.g., first-three days prior to inoculation and a second one on the day of inoculation (data not shown but results are similar). 18 leaves were inoculated with B. cinerea, as described above. The plants were covered with a nylon bag and kept in the light and 22° C. (as above).
Commercial petunia plants (‘Dream Heaven’) were treated as described above in Example 3, either by spraying the plants (FIG. 3A) or drenching the pots (FIG. 3B), this time with increasing concentrations of Phe (6-50 mM).

[7] = system: Botrytis cinerea (isolate BcI16); experiment: Gray mold on attached leaves of tomato plants treated by spray or drench; type: in vivo; settings: for B. cinerea infection (disease severity): 0.5 mM, spraying
Experimental: Tomato plants (tomato cultivar-Brigate) were grown from seeds in a nursery and transplanted into 1 liter pots at 40 to 50 days following seeding in an unheated greenhouse. Plants were fertilized proportionally with drippers 2-3 times per day with 5:3:8 NPK fertilizer (irrigation water was planned to have total N, P and K concentrations of 120, 30 and 150 mg/L, respectively; EC 2.2 dS/m), allowing for 25-50% drainage. Plants were maintained at 20-30° C. with natural light, and relative humidity of 50-90% in a pest- and disease-free greenhouse during the growth period and then transferred to an area where disease was allowed to develop following pathogen infection on intact leaves as described below.
Botrytis cinerea [Pers.:Fr. [Teleomorph: Botryotinia fuckeliana (de Bary) Whetzel] (isolate BcI16; [Swartzberg D. et al., Eur. J. Plant Pathol., 2008, 120:289-297])] was cultured on potato dextrose agar (PDA, Difco, Detroit, MI) in 90 mm diam. petri plates containing 15 ml PDA each and incubated at 20° C. The inoculum was maintained on PDA and transferred every two weeks. Gray mold conidia were harvested from 10 to 14 day-old cultures by agitating 1 cm^2 of agar bearing mycelium and conidia in a glass tube with tap water. The suspension was then filtered through cheesecloth. The concentration of conidia was determined using a haemocytometer and a light microscope, and adjusted to 5×10^5 conidia/ml. Since B. cinerea conidia need carbon and phosphate for germination and penetration, 0.1% glucose was added to the final conidial suspension together with 0.1% KH2PO4.
Plant attached tomato leaves were examined. Whole plants were kept in a humidity chamber at 22±1° C., 97±3% RH, and 1020 lux light intensity. Plants were infected by placing 10 μL drops of a 5×10^5 conidia/ml suspension, 5 drops/leaf (one drop on each leaflet), on two mature leaves.
Disease severity was evaluated on each plant using a pictorial key; 0=no infection (infection site is symptomless) and 100=all infection site fully covered by gray mold symptoms. The analyses were performed in the mentioned plants.
Phenylalanine treatment consisted of either spray or drench at concentrations of 0.5-4.1 mM administrated 3 and 0 days before infection with B. cinerea. Control plants were treated by water and kept under the same conditions as mentioned above.
Treatments in experiments were replicated 5 times. Replicates of each treatment were arranged randomly. Disease severity data in percentages were arcsin-transformed before further analysis. Disease severity data were analyzed using ANOVA and Fisher's protected LSD test and disease levels were statistically separated (P≤0.05) following a one-way analysis of variance.
Specifically, tomato plants were sprayed with increasing concentrations of Phe solutions (0.5-30 mM aquatic solution of Phe, no detergent) and percent disease severity was determined 11 days following treatment.

Alternaria alternata = experiment: Postharvest avocado fruit dip, inoculation with Alternaria alternata; type: in vivo; settings: avocado 'Ettinger', dip 30 seconds at 1-4 mM, 6 days post inoculation, 23° C.
Experimental: FIG. 8 are images of avocado fruits of the cultivar ‘Ettinger’ dipped in water or 1 mM or 4 mM phenylalanine for 30 seconds and stored for one day at 5° C. Then the avocado fruit were inoculated by wounding at the fruit equatorial with […] of spore suspension of Alternaria alternata at the concentration of 10^5 conidia/ml at two sides of the fruit. The fruits were stored at 23° C. The decay area was monitored during 6 days post inoculation. Clearly, the fruit treated with Phe solutions, postharvest show
Avocado fruits of the cultivar ‘Ettinger’ were dipped in water or 1 mM or 4 mM phenylalanine for 30 seconds and stored for one day at 5° C. Then the avocado fruit were inoculated at the fruit equatorial with Alternaria alternata at the concentration of 10^5 conidia/ml at two sides of the fruit. The decay area was monitored during 6 days post inoculation, while incubation at 23° C.

Structure (SMILES) | disease symptoms (white rot) (Sclerotinia sclerotiorum [1]) | tolerance to Pythium aphanidermatum (percentage of dead plants) (Pythium aphanidermatum) | diameter of decay [2] | resistance to botrytis (decay area) (B. cinerea [3]) | resistance of the plant leaves to the fungus (disease incidence) [4] | resistance of tomato leaves to white rot (Sclerotinia sclerotiorum [5]) | resistance of the plants to B. cinerea at higher concentrations (B. cinerea [6]; petunia 'Dream Heaven', spray or drench, 6-50 mM) | B. cinerea infection (decay area) (B. cinerea [6]; petunia) | decay area (B. cinerea [6]; petunia, 35 and 50 mM, 7 days after spraying and 10 days after drenching) | degree of resistance, 4.1 mM compared with 6 mM (B. cinerea [6]; whole petunia plants, 4.1 mM Phe vs 6 mM Phe) | tolerance to B. cinerea (decay area) (B. cinerea [6]; whole petunia plants, spraying or drenching, 6 mM, inoculation 3 days after treatment) | effect of adding a surfactant on resistance to B. cinerea ([7]; 0.5 mM Phe with 0.01% Tween 80 vs without) | B. cinerea infection (disease severity) [7] | disease severity (gray mold) ([7]; drench to the root zone, 0.5 to 4.1 mM) | duration of resistance ([7]; spray, 20 and 30 mM (results not shown)) | disease severity (gray mold) ([7]; sprayed on the plants, 1.0 to 4.1 mM) | area of brown spots (Alternaria alternata)
N[C@@H](Cc1ccccc1)C(=O)O [Phe, Phenylalanine] | significant reduction in disease symptoms | increased tolerance | significantly smaller | increased resistance of the plants to botrytis significantly | increased the resistance | increase the resistance | increased resistance | reduced B. cinerea infection | no increased decay area | a little lower | Increases Tolerance | improved the effect of increased resistance | reduced B. cinerea infection | reduced significantly | increased resistance for a longer period of time | reduced significantly | reduced the area of brown spots caused by Alternaria alternata by four folds
N[C@@H](Cc1ccc(O)cc1)C(=O)O [Tyr, Tyrosine] | – | – | – | – | – | – | – | reduced B. cinerea infection | – | – | – | – | reduced B. cinerea infection | – | – | – | –
